Source: patent US4015974A, “Amido phosphorothiolates” (priority 1972, dated 1977)

Columns and labels:
Assay type in all cases: in vivo
[1] = system: barnyard grass (Echinochloa crus-galli); test: Pre-emergence application, herbicidal effect on barnyard grass (Table 1); set-up: key: 0: not damaged; 5: completely killed; conditions: 20 days after application, score 0-5
Text: (§1) Seeds of barnyard grass (Echinochloa crus-galli) and large crabgrass (Digitaria sanguinalis) as representatives of grassy weeds and those of radish, redroot pigweed (Amaranthus retroflexus), common purslane (Portulaca oleracea) and common lambsquarter (Chenopodium album) as representatives of broad-leaved weeds were individually sowed in flower pots of about 10 cm. in diameter. After covering the seeds with soil, test compounds as shown in Table 1 were individually applied to the soil treatment. Thereafter the plants were grown in a green house and 20 days after application the herbicidal effects of the compounds were observed, the results of which are as shown in Table 1.
(§2) Herbicidal effects were evaluated by the numerals ranging from 0 (not damaged) to 5 (completely killed). All the test compounds were used in the form of wettable powder and diluted with water before application.

[2] = system: large crabgrass (Digitaria sanguinalis); test: Pre-emergence application, herbicidal effect on large crabgrass (Table 1); set-up: key: 0: not damaged; 5: completely killed; conditions: 20 days after application, score 0-5
Text: as §1, §2

radish = test: Pre-emergence application, herbicidal effect on radish (Table 1); set-up: key: 0: not damaged; 5: completely killed; conditions: 20 days after application, score 0-5
Text: as §1, §2

[3] = system: redroot pigweed (Amaranthus retroflexus); test: Pre-emergence application, herbicidal effect on redroot pigweed (Table 1); set-up: key: 0: not damaged; 5: completely killed; conditions: 20 days after application, score 0-5
Text: as §1, §2

[4] = system: common purslane (Portulaca oleracea); test: Pre-emergence application, herbicidal effect on common purslane (Table 1); set-up: key: 0: not damaged; 5: completely killed; conditions: 20 days after application, score 0-5
Text: as §1, §2

[5] = system: common lambsquarter (Chenopodium album); test: Pre-emergence application, herbicidal effect on common lambsquarter (Table 1); set-up: key: 0: not damaged; 5: completely killed; conditions: 20 days after application, score 0-5
Text: as §1, §2

rice = test: Water application, phytotoxicity on rice (Table 2); set-up: key: 0: no effect; 1: very slightly affected; 2: slightly affected; 3: moderately affected; 4: considerably affected; 5: completely killed; conditions: 25 days, score 0-5
Text: (§3) Wagner pots of 14 cm. in diameter, which had been packed with 1.5 kg. of paddy field soil, were brought into the state of paddy fields. To the pots were transplanted rice seedlings at the 3-leave stage. Further, seeds of barnyard grass (Echinochloa crus-galli) were sowed in the pots and required amounts of test compounds were applied to the soil under water lodged condition. 25 days after application, the degrees of herbicidal activity and phytotoxity were investigated on above-mentioned plants which had been transplanted and sowed, and on broad-leaved weeds, e.g., monochoria (Monochoria viaginalis Presl.), false pimpernel (Linderna pyxidaria) and toothcup (Rotala indica Koehue), which had been spontaneously germinated. The test compounds were used in the form of wettable powder. The herbicidal effects and the phytotoxity were evaluated as follows by the numerals ranging from 0 to 5.

[6] = system: barnyard grass (Echinochloa crus-galli); test: Water application, herbicidal effect on barnyard grass (Table 2); set-up: key: 0: not damaged; 5: completely killed; conditions: 25 days, score 0-5
Text: as §3

[7] = system: broad-leaved weeds, e.g., monochoria, false pimpernel and toothcup; test: Water application, herbicidal effect on broad-leaved weeds (Table 2); set-up: key: 0: not damaged; 5: completely killed; conditions: 25 days, score 0-5
Text: as §3

SMILES	Herbicidal effect, barnyard grass ([1]; 10 g./a.)	Herbicidal effect, barnyard grass ([1]; 20 g./a.)	Herbicidal effect, barnyard grass ([1]; 40 g./a.)	Herbicidal effect, large crabgrass ([2]; 10 g./a.)	Herbicidal effect, large crabgrass ([2]; 20 g./a.)	Herbicidal effect, large crabgrass ([2]; 40 g./a.)	Herbicidal effect, radish (radish; 10 g./a.)	Herbicidal effect, radish (radish; 20 g./a.)	Herbicidal effect, radish (radish; 40 g./a.)	Herbicidal effect, redroot pigweed ([3]; 10 g./a.)	Herbicidal effect, redroot pigweed ([3]; 20 g./a.)	Herbicidal effect, redroot pigweed ([3]; 40 g./a.)	Herbicidal effect, common purslane ([4]; 10 g./a.)	Herbicidal effect, common purslane ([4]; 20 g./a.)	Herbicidal effect, common purslane ([4]; 40 g./a.)	Herbicidal effect, common lambsquarter ([5]; 10 g./a.)	Herbicidal effect, common lambsquarter ([5]; 20 g./a.)	Herbicidal effect, common lambsquarter ([5]; 40 g./a.)	Phytotoxicity on rice (rice; 10 g/a)	Phytotoxicity on rice (rice; 20 g/a)	further results
CCCOP(=O)(SCC(=O)N1CCCCC1C)SCC(C)C (stereo not drawn) [Compound 67]	4	5	5	4	5	5	0	0	0	4	4	5	4	4	5	3	4	5	0	0	Phytotoxicity on rice (rice; 40 g/a): 0; Herbicidal effects, barnyard grass ([6]; 10 g/a): 5; Herbicidal effects, barnyard grass ([6]; 20 g/a): 5; Herbicidal effects, barnyard grass ([6]; 40 g/a): 5; Herbicidal effects, broad-leaved weeds ([7]; 10 g/a): 5; Herbicidal effects, broad-leaved weeds ([7]; 20 g/a): 5; Herbicidal effects, broad-leaved weeds ([7]; 40 g/a): 5
CCCCCSP(=O)(OCCC)SCC(=O)N1CCCCC1C (stereo not drawn) [Compound 68]	4	4	5	4	4	5	0	0	0	4	4	5	3	4	5	4	4	5	0	0	Phytotoxicity on rice (rice; 40 g/a): 0; Herbicidal effects, barnyard grass ([6]; 10 g/a): 5; Herbicidal effects, barnyard grass ([6]; 20 g/a): 5; Herbicidal effects, barnyard grass ([6]; 40 g/a): 5; Herbicidal effects, broad-leaved weeds ([7]; 10 g/a): 5; Herbicidal effects, broad-leaved weeds ([7]; 20 g/a): 5; Herbicidal effects, broad-leaved weeds ([7]; 40 g/a): 5
CCCOP(=O)(SCCC(C)C)SCC(=O)N1CCCCC1C (stereo not drawn) [Compound 69]	4	5	5	5	5	5	0	0	0	4	5	5	4	5	5	4	5	5	0	0	Phytotoxicity on rice (rice; 40 g/a): 1; Herbicidal effects, barnyard grass ([6]; 10 g/a): 5; Herbicidal effects, barnyard grass ([6]; 20 g/a): 5; Herbicidal effects, barnyard grass ([6]; 40 g/a): 5; Herbicidal effects, broad-leaved weeds ([7]; 10 g/a): 5; Herbicidal effects, broad-leaved weeds ([7]; 20 g/a): 5; Herbicidal effects, broad-leaved weeds ([7]; 40 g/a): 5
C=CCSP(=O)(OCCC)SCC(=O)N1CCCCC1C (stereo not drawn) [Compound 70]	5	5	5	5	5	5	0	0	0	5	5	5	5	5	5	5	5	5	0	0	Phytotoxicity on rice (rice; 40 g/a): 2; Herbicidal effects, barnyard grass ([6]; 10 g/a): 5; Herbicidal effects, barnyard grass ([6]; 20 g/a): 5; Herbicidal effects, barnyard grass ([6]; 40 g/a): 5; Herbicidal effects, broad-leaved weeds ([7]; 10 g/a): 5; Herbicidal effects, broad-leaved weeds ([7]; 20 g/a): 5; Herbicidal effects, broad-leaved weeds ([7]; 40 g/a): 5
CCOP(=O)(SCC)SCC(=O)N1CCCC(C)C1 (stereo not drawn) [Compound 71]	5	5	5	5	5	5	0	1	2	4	5	5	4	5	5	4	4	5	0	0	Phytotoxicity on rice (rice; 40 g/a): 0; Herbicidal effects, barnyard grass ([6]; 10 g/a): 5; Herbicidal effects, barnyard grass ([6]; 20 g/a): 5; Herbicidal effects, barnyard grass ([6]; 40 g/a): 5; Herbicidal effects, broad-leaved weeds ([7]; 10 g/a): 5; Herbicidal effects, broad-leaved weeds ([7]; 20 g/a): 5; Herbicidal effects, broad-leaved weeds ([7]; 40 g/a): 5
